Data taken from EP2607478A1, “Phenanthroline treated MSC” (Universiteit Twente, priority 2011, dated 2013).

System: MSCs
Experiment: Whole genome expression analysis (Illumina microarray) of treated MSCs
Type: cell-based, Human
Method: MSCs were seeded in T25 flasks at 5000 cells/cm^2 and allowed to attach overnight in proliferation medium. […] After 48 hours, RNA was isolated as described above. From 500 ng of RNA, cRNA was synthesized using the Illumina TotalPrep RNA amplification Kit (Ambion), according to the manufacturer's protocol and the quality of RNA and cRNA was verified on a Bioanalyzer 2100 (Agilent). Microarrays were performed using Illumina HT-12 v4 expression Beadchips, according to the manufacturer's protocol. Briefly, 750 ng of cRNA was hybridized on the array overnight after which the array was washed and blocked. Then, by addition of streptavidin Cy-3 a fluorescent signal was developed. Arrays were scanned on an Illumina iScan reader and raw intensity values were background corrected in GenomeStudio (Illumina). Further data processing and statistical testing were performed with R and Bioconductor statistical software (www.bioconductor.org), using package lumi. Raw intensity values were transformed using variance stabilization and a quantile normalization was performed. A linear modelling approach with empirical Bayesian methods, as implemented in Limma package (54), was applied for differential expression analysis of the resulting probe-level expression values. A gene list, containing only those genes with an absolute 1.5-fold change between different treatments, was uploaded to Ingenuity Pathway Analysis (IPA) software and used for core analysis. Pathways or networks with a p-value of 0.05 were considered statistically significant.

For `CC(=O)N(O)CCCCCNC(=O)CCC(=O)N(O)CCCCCNC(=O)CCC(=O)N(O)CCCCCN` [DFO, reference compound], which “interleukin-8 (Il-8) gene expression” value (MSCs treated for two days, 150 µM DFO or 200 µM PHE) is on record?
The value was “did not affect this gene at all”.

What about the “expression of HRE-containing genes (metabolism, cell growth and survival, endothelial genes)” value (MSCs treated for two days, 150 µM DFO or 200 µM PHE, relative to basic medium) of the same molecule?
The value was “increased expression”.

What about the “logFC(D142_ DFO - D142_BAS) NTN4” value (ProbeID ILMN 2113490, DFO versus Bas) of the same molecule?
Its value is 2,23.

And the “logFC(D142_ DFO - D142_BAS) HIST1H2BD” value (ProbeID ILMN_1651496, DFO versus Bas)?
The value was 3,33.

What about the “logFC(D142_ DFO - D142_BAS) PFKFB4” value (ProbeID ILMN_1653292, DFO versus Bas) of the same molecule?
Its value is 3,53.

What about the “logFC(D142_ DFO - D142_BAS) FZD2” value (ProbeID ILMN_1653711, DFO versus Bas) of the same molecule?
Its value is -2,10.

What about the “logFC(D142_ DFO - D142_BAS)” value (ProbeID ILMN_1655796, DFO versus Bas) of the same molecule?
The value was 2,46.

What about the “logFC(D142_ DFO - D142_BAS) PLAU” value (ProbeID ILMN_1656057, DFO versus Bas) of the same molecule?
Its value is -2,69.

What about the “logFC(D142_ DFO - D142_BAS) C1orf198” value (ProbeID ILMN_1657683, DFO versus Bas) of the same molecule?
The value was -2,30.

What about the “logFC(D142_ DFO - D142_BAS) KRTAP2-1” value (ProbeID ILMN_1658448, DFO versus Bas) of the same molecule?
The value was 2,71.

What about the “logFC(D142_ DFO - D142_BAS) SLC2A1” value (ProbeID ILMN_1659027, DFO versus Bas) of the same molecule?
Its value is 3,46.

What about the “logFC(D142_ DFO - D142_BAS) HIST2H2AA3” value (ProbeID ILMN_1659047, DFO versus Bas) of the same molecule?
The value was 2,07.

What about the “logFC(D142_ DFO - D142_BAS) C7orf68” value (ProbeID ILMN_1659990, DFO versus Bas) of the same molecule?
Its value is 3,04.

And the “logFC(D142_ DFO - D142_BAS) LOC728285” value (ProbeID ILMN_1660067, DFO versus Bas)?
The value was 2,89.

And the “logFC(D142_ DFO - D142_BAS) PFKFB3” value (ProbeID ILMN_1660847, DFO versus Bas)?
Its value is 2,48.

And the “logFC(D142_ DFO - D142_BAS) DDIT4” value (ProbeID ILMN_1661599, DFO versus Bas)?
Its value is 4,37.

And the “logFC(D142_ DFO - D142_BAS) CDC20” value (ProbeID ILMN_1663390, DFO versus Bas)?
The value was -3,40.

What about the “logFC(D142_ DFO - D142_BAS) MGC87042” value (ProbeID ILMN_1663575, DFO versus Bas) of the same molecule?
The value was -2,17.

And the “logFC(D142_ DFO - D142_BAS) PPP1R14C” value (ProbeID ILMN_1664855, DFO versus Bas)?
Its value is 2,96.

What about the “logFC(D142_ DFO - D142_BAS) ERRFI1” value (ProbeID ILMN_1665510, DFO versus Bas) of the same molecule?
Its value is 2,53.

And the “logFC(D142_ DFO - D142_BAS) C1orf24” value (ProbeID ILMN_1667966, DFO versus Bas)?
The value was 2,70.

And the “logFC(D142_ DFO - D142_BAS) PPM1D” value (ProbeID ILMN_1670875, DFO versus Bas)?
Its value is 2,06.

What about the “logFC(D142_ DFO - D142_BAS) ACTA2” value (ProbeID ILMN_1671703, DFO versus Bas) of the same molecule?
Its value is -2,61.

What about the “logFC(D142_ DFO - D142_BAS) JAM2” value (ProbeID ILMN_1672350, DFO versus Bas) of the same molecule?
The value was 2,05.

And the “logFC(D142_ DFO - D142_BAS) TFRC” value (ProbeID ILMN_1674243, DFO versus Bas)?
Its value is 2,31.

What about the “logFC(D142_ DFO - D142_BAS) MTHFD2” value (ProbeID ILMN_1674706, DFO versus Bas) of the same molecule?
Its value is 2,79.

What about the “logFC(D142_ DFO - D142_BAS) MT3” value (ProbeID ILMN_1675947, DFO versus Bas) of the same molecule?
The value was 3,00.

And the “logFC(D142_ DFO - D142_BAS) DDIT3” value (ProbeID ILMN_1676984, DFO versus Bas)?
Its value is 3,92.

And the “logFC(D142_ DFO - D142_BAS) CHN1” value (ProbeID ILMN_1678493, DFO versus Bas)?
Its value is -2,71.

And the “logFC(D142_ DFO - D142_BAS) SLC3A2” value (ProbeID ILMN_1679041, DFO versus Bas)?
The value was 2,26.

And the “logFC(D142_ DFO - D142_BAS) CLK1” value (ProbeID ILMN_1679727, DFO versus Bas)?
The value was 2,03.

And the “logFC(D142_ DFO - D142_BAS) MAFF” value (ProbeID ILMN_1680139, DFO versus Bas)?
Its value is 2,48.

What about the “logFC(D142_ DFO - D142_BAS) GPRC5A” value (ProbeID ILMN_1682599, DFO versus Bas) of the same molecule?
The value was 2,35.

And the “logFC(D142_ DFO - D142_BAS) IER3” value (ProbeID ILMN_1682717, DFO versus Bas)?
The value was 2,14.

And the “logFC(D142_ DFO - D142_BAS) RRAD” value (ProbeID ILMN_1683179, DFO versus Bas)?
The value was 2,83.

What about the “logFC(D142_ DFO - D142_BAS) GPT2” value (ProbeID ILMN_1684158, DFO versus Bas) of the same molecule?
Its value is 2,16.

And the “logFC(D142_ DFO - D142_BAS) INHBB” value (ProbeID ILMN_1685714, DFO versus Bas)?
The value was 2,06.

And the “logFC(D142_ DFO - D142_BAS) TOP2A” value (ProbeID ILMN_1686097, DFO versus Bas)?
The value was -2,19.

What about the “logFC(D142_ DFO - D142_BAS) COLEC12” value (ProbeID ILMN_1689088, DFO versus Bas) of the same molecule?
The value was -3,20.

And the “logFC(D142_ DFO - D142_BAS) CXCL12” value (ProbeID ILMN_1689111, DFO versus Bas)?
Its value is -2,92.

What about the “logFC(D142_ DFO - D142_BAS) PDLIM7” value (ProbeID ILMN_1690125, DFO versus Bas) of the same molecule?
Its value is -2,43.

What about the “logFC(D142_ DFO - D142_BAS) CRABP2” value (ProbeID ILMN_1690170, DFO versus Bas) of the same molecule?
The value was -2,06.

What about the “logFC(D142_ DFO - D142_BAS) STC2” value (ProbeID ILMN_1691884, DFO versus Bas) of the same molecule?
Its value is 3,54.

What about the “logFC(D142_ DFO - D142_BAS) PSAT1” value (ProbeID ILMN_1692938, DFO versus Bas) of the same molecule?
The value was 3,93.

And the “logFC(D142_ DFO - D142_BAS) P4HA1” value (ProbeID ILMN_1693334, DFO versus Bas)?
The value was 3,24.

What about the “logFC(D142_ DFO - D142_BAS) GADD45A” value (ProbeID ILMN_1694075, DFO versus Bas) of the same molecule?
Its value is 2,63.

What about the “logFC(D142_ DFO - D142_BAS) KIF20A” value (ProbeID ILMN_1695658, DFO versus Bas) of the same molecule?
The value was -2,76.

What about the “logFC(D142_ DFO - D142_BAS) DDIT4L” value (ProbeID ILMN_1696537, DFO versus Bas) of the same molecule?
Its value is -2,14.

What about the “logFC(D142_ DFO - D142_BAS) TNFRSF10B” value (ProbeID ILMN_1699265, DFO versus Bas) of the same molecule?
Its value is 2,74.
